From US8916600B2, “Phenyl and benzodioxinyl substituted indazoles derivatives” (Astrazeneca AB, priority 2008, dated 2014) come the findings set out here.

Experiment [1] addresses Human Glucocorticoid Receptor (GR) (Homo sapiens (Human), UniProt P04150). As to the kind of experiment: Human Glucocorticoid Receptor (GR) radioligand binding assay (competition with 3H-labeled Dexamethasone). Conditions: full length GR, 7 nM 3H-dexamethasone, 2 h at room temperature; read-out: GR Hu Bind Filter Mean Control IC50. As to the method: Human Glucocorticoid Receptor (GR) Assay
The radioligand GR binding assay is based on a competition assay using ^3H-labeled Dexamethasone, Dexamethasone is known to bind in the ligand binding domain of GR and compete for binding with endogenous ligands like e.g. cortisol (Necela, 2003).
In the GR radioligand binding assay, test compounds were serially diluted in semi-log steps (10 concentrations) with a final concentration of 10 μM. Test compounds (1 μL) and controls (1 μL) in 100% DMSO were added to 96 Greiner V-bottom polypropylene plates. 0% control was 6.7% DMSO (final concentration in assay) and 100% control was 6.7 μM Dexamethasone.
The full length GR was diluted to a final concentration of 3.3% (0.495 mg/ml) in assay buffer (20 mM Tris-HCl, 1 mM EDTA, 10% (w/v) Glycerol, 20 mM Sodium molbydate, pH 7.4). 45 μL of GR was added to each well and the plates were incubated for 15 min at room temperature.
^3H-dexamethasone solution was diluted to a concentration of 70 nM in assay buffer (7 nM final assay concentration) and 5 μL was added to each well. The samples were mixed for 5 min using a plate shaker at 700 rpm, before incubation for 2 h at room temperature,
50 μL ice-cold charcoal solution (pH 7.4: 2% Charcoal, 0.2% Dextran T70 in 20 mM Tris-HCl, 1 mM EDTA and 20 mM Sodium molbydate) was'added to each well and the samples were mixed on plate shaker for 5 minutes.
The plate was then centrifuged for 1.5 min at 1500 rpm, the samples (80 μL) were transferred from each well to a filter plate (Millipore, 0.45 μm, MHVBN45) on a vacuum manifold and then collected into new plates (Greiner, 96 well white/transparent, 655095). The filter plate was washed once with 20 μl of water and then 100 μL of scintillation liquid was added to each well and mixed by incubation on plate shaker for 5 min. Radioactivity was measured in a 1450 Microbeta Trilux Reader (Wallac) counting cpm for 2 minutes per well. The data obtained from each replicate experiment were analysed using the software ActivityBase, version 5.4.3 (ID Business Solutions Ltd) and IC50 values were calculated. Ref: Necela, B M, Cidlowski, J A, Trends Pharmacol Sci, 24: 58, 2003

The test system of experiment [2] is AP-1/TRE-activity in ChaGo-K-1 cells transfected with 5×TRE-LacZ. As to the kind of experiment: Transrepression Reporter Gene Assay (TRE-LacZ transfected ChaGo-K-1 cells, PMA stimulated). It is filed as cell-based, human. Conditions: PMA 10 ng/ml, Dexamethasone 10^-6 M set as 100 percent control, read-out: Agonism TRE IC50. As to the method: Transrepression Reporter Gene Assay
The human bronchogenic carcinoma cell-line, ChaGo-K-1 (ATCC: HTB 168), were transfected with 5×TRE-LacZ (clone 16:15:5 s5), i.e. TRE transfected cells, to measure transrepression activity of the selected compounds. Before use, the cells were grown for one to two weeks in selection medium containing 0.7 mg geneticin (G418)/ml medium. The cells were cultured at 37° C., 5% CO2 and 100% humidity in 96 well microtiter plates in RPMI-medium complemented with 10% fetal calf serum, 1% non-essential amino acids and 1% sodium pyruvate. The cells were passaged once weekly.
The TRE transfected cells were seeded in 96 well plates with 25-30 000 cells/well and grown for 72-96 h, to reach about 80% confluence. To stimulate the upregulation of the AP-1/TRE-activity, the cells were stimulated with 10 ng/ml Phorbol Myristate acetate (PMA) 3-5 h prior to addition of compounds. The PMA was present during the whole experiment. The TRE mediated effects (transrepression) in the transfected ChagGo-K-1 cells was measured as downregulation of β-galactosidase activity. The β-galactosidase activity for the transrepression experiments was measured by a fluorometric assay performed in microtiter plates. Cells were washed once in PBS. 180 μl of a reaction mixture containing 5 parts of Z-buffer and one part 4-methylumbelliferyl-β-D-galactosidase (MUG)-solution was then added (150 μl Z-buffer [18 μl 0.6 M Na2HPO4, 12 μl 0.6 M NaH2PO4, 7.2 μl 0.25 M KCl, 18 μl 0.01 M MgSO4, 1.8 μl 10% Triton X-100, 93 μl H2O]+30 μl 3 mM 4-methylumbelliferyl-[…]). After 60 min incubation at 37° C., 70 μl stop buffer was added to each well and the fluorescence was read in a fluorometer (Spectramax Gemini) with emission filter at 460 nm and excitation filter at 360 nm. The TRE activity was calculated as the relative activity compared to cells not treated with compounds. Inhibition of β-galactosidase by the compounds is expressed as percent inhibition compared to Dexamethasone 10^−6 M set as a 100 percent control within each experiment and DMSO 0.1% set as background control. The effect of Dexamethasone is well documented in this system and was therefore chosen as a positive control for comparison of the potency and efficacy of the compounds.
Background: A reporter such as luciferase makes a cellular process visible.

The mark [3] stands for this setting: Homo sapiens, ChaGo-K-1, downregulation of β-galactosidase activity.

In general, pIC50 refers to the IC50 on a negative log10 scale, so that one unit is a factor of ten.

pIC50: −log10 of the molar value. Like-named read-outs stand apart in the source and are kept apart here.

Sequence of Human Glucocorticoid Receptor (GR) (P04150 whole entry, the tested form may be a part): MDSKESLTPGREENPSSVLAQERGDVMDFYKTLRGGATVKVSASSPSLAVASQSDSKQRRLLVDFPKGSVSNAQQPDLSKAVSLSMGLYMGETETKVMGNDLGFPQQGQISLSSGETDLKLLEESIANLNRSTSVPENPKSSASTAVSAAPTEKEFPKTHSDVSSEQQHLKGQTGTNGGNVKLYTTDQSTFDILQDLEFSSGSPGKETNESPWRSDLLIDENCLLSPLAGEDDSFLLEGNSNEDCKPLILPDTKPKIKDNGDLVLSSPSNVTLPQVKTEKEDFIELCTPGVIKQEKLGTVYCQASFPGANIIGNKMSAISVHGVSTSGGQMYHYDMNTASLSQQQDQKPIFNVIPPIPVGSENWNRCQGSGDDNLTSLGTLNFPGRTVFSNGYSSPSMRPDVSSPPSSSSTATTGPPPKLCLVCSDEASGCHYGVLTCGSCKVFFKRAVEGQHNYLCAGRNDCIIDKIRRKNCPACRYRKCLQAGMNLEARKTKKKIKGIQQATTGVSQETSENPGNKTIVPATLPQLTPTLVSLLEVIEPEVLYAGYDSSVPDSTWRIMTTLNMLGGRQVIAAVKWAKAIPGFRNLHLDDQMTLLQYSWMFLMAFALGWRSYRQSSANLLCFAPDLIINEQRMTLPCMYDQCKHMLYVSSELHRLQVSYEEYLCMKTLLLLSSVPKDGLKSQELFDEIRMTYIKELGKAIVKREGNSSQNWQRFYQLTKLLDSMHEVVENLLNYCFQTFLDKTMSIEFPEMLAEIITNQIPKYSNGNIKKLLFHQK

Take `C[C@H](NC(=O)C(C)(F)F)[C@H](Oc1ccc2c(cnn2-c2cccc(C(=O)N[C@@H]3CCC[C@@H]3O)c2)c1)c1ccc2c(c1)OCOC2` [Example 14, 3-[5-({(1R,2S)-1-(4H-1,3-benzodioxin-7-yl)-2-[(2,2-difluoropropanoyl)amino]propyl}oxy)-1H-indazol-1-yl]-N-[(1R,2S)-2-hydroxycyclopentyl]benzamide]: the pIC50 in experiment [1] was 8.76; in experiment [2] (setting [3]) it was 9.84. Take `CC[C@@H](O)CNC(=O)c1cccc(-n2ncc3cc(O[C@H](c4ccc5c(c4)OCOC5)[C@H](C)NC(=O)C(C)(F)F)ccc32)c1` [Example 11, 3-[5-({(1R,2S)-1-(4H-1,3-benzodioxin-7-yl)-2-[(2,2-difluoropropanoyl)amino]propyl}oxy)-1H-indazol-1-yl]-N-[(2R)-2-hydroxybutyl]benzamide]: the pIC50 in experiment [1] is 8.67; in experiment [2] (setting [3]) it was 9.29. For `C[C@H](NC(=O)C(C)(F)F)[C@H](Oc1ccc2c(cnn2-c2cccc(C(=O)NC3CCCC3)c2)c1)c1ccc2c(c1)OCOC2` [Example 8, 3-[5-({(1R,2S)-1-(4H-1,3-benzodioxin-7-yl)-2-[(2,2-difluoropropanoyl)amino]propyl}oxy)-1H-indazol-1-yl]-N-cyclopentylbenzamide], the pIC50 is 9.10 in experiment [1] and 9.41 in experiment [2] (setting [3]).

Turning to `C[C@H](NC(=O)C(C)(F)F)[C@H](Oc1ccc2c(cnn2-c2cccc(C(=O)N[C@H]3CC[S+]([O-])C3)c2)c1)c1ccc2c(c1)OCOC2` (single isomer, unassigned) [Example 16], the values for the pIC50 in experiment [1] and in experiment [2] (downregulation of β-galactosidase activity) were 8.37 and 9.22, respectively. Regarding `C[C@H](NC(=O)C(C)(F)F)[C@H](Oc1ccc2c(cnn2-c2cccc(C(=O)NCc3ccccc3)c2)c1)c1ccc2c(c1)OCOC2` [Example 17, 3-[5-({(1R,2S)-1-(4H-1,3-benzodioxin-7-yl)-2-[(2,2-difluoropropanoyl)amino]propyl}oxy)-1H-indazol-1-yl]-N-benzylbenzamide], the pIC50 in experiment [1] is 9.00; in experiment [2] (setting [3]) it was 9.12. As for `C[C@H](NC(=O)C(C)(F)F)[C@H](Oc1ccc2c(cnn2-c2cccc(C(=O)N[C@H]3CCS(=O)(=O)C3)c2)c1)c1ccc2c(c1)OCOC2` [Example 4, 3-[5-({(1R,2S)-1-(4H-1,3-benzodioxin-7-yl)-2-[(2,2-difluoropropanoyl)amino]propyl}oxy)-1H-indazol-1-yl]-N-[(3S)-1,1-dioxidotetrahydrothiophen-3-yl]benzamide], the pIC50 in experiment [2] (setting [3]) is 9.13. With `C[C@H](NC(=O)C(C)(F)F)[C@H](Oc1ccc2c(cnn2-c2cccc(C(=O)N[C@@H]3CCC[C@@H]3O)c2)c1)c1ccc2c(c1)OCCO2` [Example 10, 3-(5-{[(1R,2S)-2-[(2,2-difluoropropanoyl)amino]-1-(2,3-dihydro-1,4-benzodioxin-6-yl)propyl]oxy}-1H-indazol-1-yl)-N-[(1R,2S)-2-hydroxycyclopentyl]benzamide], the pIC50 was 9.19 in experiment [1] and 9.95 in experiment [2] (setting [3]). As for `C[C@H](NC(=O)C(C)(F)F)[C@H](Oc1ccc2c(cnn2-c2cccc(C(=O)N[C@@H]3CCS(=O)(=O)C3)c2)c1)c1ccc2c(c1)OCOC2` [Example 3, 3-[5-({(1R,2S)-1-(4H-1,3-Benzodioxin-7-yl)-2-[(2,2-difluoropropanoyl)amino]propyl}oxy)-1H-indazol-1-yl]-N-[(3R)-1,1-dioxidotetrahydrothiophen-3-yl]benzamide], the pIC50 in experiment [2] (setting [3]) was 9.46. Consider `C[C@H](NC(=O)C(C)(F)F)[C@H](Oc1ccc2c(cnn2-c2cccc(C(=O)NC3CCCC3)c2)c1)c1ccc2c(c1)OCCO2` [Example 7, N-cyclopentyl-3-(5-{[(1R,2S)-2-[(2,2-difluoropropanoyl)amino]-1-(2,3-dihydro-1,4-benzodioxin-6-yl)propyl]oxy}-1H-indazol-1-yl)benzamide], for which the pIC50 is 8.89 in experiment [1] and 9.79 in experiment [2] (setting [3]). Turning to `C[C@H](NC(=O)C(C)(F)F)[C@H](Oc1ccc2c(cnn2-c2cccc(C(=O)N[C@H]3CC[S+]([O-])C3)c2)c1)c1ccc2c(c1)OCOC2` (single isomer, unassigned) [Example 15], the figures for the negative-log IC50 (pIC50) in experiment [1] and in experiment [2] (setting [3]) were 8.44 and 9.30, respectively. Take `C[C@H](NC(=O)C(C)(F)F)[C@H](Oc1ccc2c(cnn2-c2cccc(C(=O)N[C@H]3CCC[C@@H]3O)c2)c1)c1ccc2c(c1)OCOC2` [Example 18, 3-[5-({(1R,2S)-1-(4H-1,3-benzodioxin-7-yl)-2-[(2,2-difluoropropanoyl)amino]propyl}oxy)-1H-indazol-1-yl]-N-[(1S,2S)-2-hydroxycyclopentyl]benzamide]: the negative logarithm of the IC50 (pIC50) in experiment [1] was 8.46; in experiment [2] (setting [3]), 9.26.
